The record followed here is patent US8476271B2 (priority 2008, dated 2013).

Structures can show the parent of a compound that is named as a salt.

In data set [1] the test system is FCA-induced thermal hyperalgesia. The data set can be described thus: FCA model of inflammatory pain, thermal hyperalgesia (PWL, plantar test). Type of data set: in vivo. The settings on record: rat. As for the experimental part:
(§1) Each experiment used rats weighing between 200-260 g at the start of the experiment. The rats were group-housed and had free access to food and water at all times, except prior to oral administration of a Substituted-Quinoxaline-Type Bridged-Piperidine Compound when food was removed for 16 hours before dosing. A control group acted as a comparison to rats treated with a Substituted-Quinoxaline-Type Bridged-Piperidine Compound. The control group was administered the carrier for the Substituted-Quinoxaline-Type Bridged-Piperidine Compound. The volume of carrier administered to the control group was the same as the volume of carrier and Substituted-Quinoxaline-Type Bridged-Piperidine Compound administered to the test group.
To assess the actions of a Substituted-Quinoxaline-Type Bridged-Piperidine Compound for the treatment or prevention of inflammatory pain, the Freund's complete adjuvant (“FCA”) model of inflammatory pain was used. […] The left hind paw of each animal was administered a 50 μL intraplantar injection of 50% FCA. 24 hour post injection, the animal was assessed for response to noxious mechanical stimuli by determining the PWT, or to noxious thermal stimuli by determining the PWL, as described below. […] Responses to noxious mechanical stimuli were then determined 1, 3, 5 and 24 hours post administration. Percentage reversal of hyperalgesia for each animal was defined as: […]
The plantar test can be used to assess thermal hyperalgesia. For this test, hind paw withdrawal latencies (PWL) to a noxious thermal stimulus were determined using a plantar test apparatus (commercially available from Ugo Basile of Italy) following the technique described by K. Hargreaves et al., “A New and Sensitive Method for Measuring Thermal Nociception in Cutaneous Hyperalgesia,” Pain 32(1):77-88 (1988). The maximum exposure time was set at 32 seconds to avoid tissue damage and any directed paw withdrawal from the heat source was taken as the end point. Three latencies were determined at each time point and averaged. Either only the affected (ipsilateral) paw was tested, or both the ipsilateral and contralateral (non-injured) paw were tested.

The nature of data set [2]: abnormal behavioral side effects (sedation, hyperactivity, hypoactivity). The following applies: rat, in vivo.
The subject of data set [3] is nerve injury-induced mechanical hyperalgesia. The data set can be described thus: Seltzer partial sciatic nerve ligation model of neuropathic pain, mechanical hyperalgesia (PWT). Type of data set: in vivo. The following applies: rat, 3 mg/kg. As to the method: as §1
Partial ligation of the left sciatic nerve was performed under isoflurane/O2 inhalation anesthesia. Following induction of anesthesia, the left thigh of the rat was shaved and the sciatic nerve exposed at high thigh level through a small incision and was carefully cleared of surrounding connective tissues at a site near the trocanther just distal to the point at which the posterior biceps semitendinosus nerve branches off of the common sciatic nerve. A 7-0 silk suture was inserted into the nerve with a ⅜ curved, reversed-cutting mini-needle and tightly ligated so that the dorsal ⅓ to ½ of the nerve thickness was held within the ligature. The wound was closed with a single muscle suture (4-0 nylon (Vicryl)) and vetbond tissue glue. Following surgery, the wound area was dusted with antibiotic powder. Sham-treated rats underwent an identical surgical procedure except that the sciatic nerve was not manipulated. Following surgery, animals were weighed and placed on a warm pad until they recovered from anesthesia. Animals were then returned to their home cages until behavioral testing began. The animals were assessed for response to noxious mechanical stimuli by determining PWT, as described below, prior to surgery (baseline), then immediately prior to and 1, 3, and 5 hours after drug administration for rear paw of the animal. Percentage reversal of neuropathic hyperalgesia was defined as: […]
The paw pressure assay was used to assess mechanical hyperalgesia. For this assay, hind paw withdrawal thresholds (PWT) to a noxious mechanical stimulus were determined using an analgesymeter (Model 7200, commercially available from Ugo Basile of Italy) as described in C. […] The maximum weight that could be applied to the hind paw was set at 250 g and the end point is taken was complete withdrawal of the paw. PWT was determined once for each rat at each time point and either only the affected (ipsilateral) paw was tested, or both the ipsilateral and contralateral (non-injured) paw were tested.

Data set [4] addresses hERG (human ether a-go-go gene) (Homo sapiens (Human), UniProt Q12809). The data set can be described thus: cardiovascular side effects: in vitro hERG assay and APD in guinea pig purkinje fibers. As for the experimental part:
These side effects were determined using known methods: an in vitro hERG (human ether a-go-go gene) assay as disclosed in Z. Zhou et al., “Properties of HERG Channels Stably Expressed in HEK 293 Cells Studied at Physiological Temperature,” Biophysical J. 74:230-241 (1998); and APD (action potential duration) in guinea pig purkinje fibers as disclosed in J. A. Hey, “The Guinea Pig Model for Assessing Cardiotoxic Proclivities of Second Generation Antihistamines,” Arzneimittelforschung 46(8):834-837 (1996).
(hERG is a cardiac potassium channel; its block is linked to QT prolongation.)

The mark [5] stands for this setting: 5 mg/kg dose, 1 hour after administration.
[6] abbreviates: 5 mg/kg dose, 3 hours after administration.
[7] abbreviates: 5 mg/kg dose, 5 hours after administration.

Regarding `O=C(O)c1nc2ccccc2n([C@H]2C[C@H]3CC[C@@H](C2)N3[C@H]2C[C@@H]3CCC[C@@H](C3)C2)c1=O` [Compound 361, 4-((endo)-8-((exo)-bicyclo[3.3.1]nonan-3-yl)-8-azabicyclo[3.2.1]octan-3-yl)-3-oxo-3,4-dihydroquinoxaline-2-carboxylic acid], the “% reversal of thermal hyperalgesia” value in data set [1] (setting [5]) was found to be 36%; in data set [1] (setting [6]), 90%; in data set [1] (setting [7]), 70%. In addition, the “abnormal behavioral side effects, such as sedation, hyperactivity and/or hypoactivity” value in data set [2] was “reduced abnormal behavioral side effects”.
In the same order, the values of `O=C(O)c1nc2ccccc2n([C@H]2C[C@H]3CC[C@@H](C2)N3C2CCCCCCCCCC2)c1=O` [Compound 358, 4-((endo)-8-cycloundecyl-8-azabicyclo[3.2.1]octan-3-yl)-3-oxo-3,4-dihydroquinoxaline-2-carboxylic acid] are 34%, 46%, 79% and “reduced abnormal behavioral side effects”.
Regarding `O=C(O)c1nc2ccccc2n([C@H]2C[C@H]3CCC[C@@H](C2)N3C2CC3CCCC(C3)C2)c1=O` (stereo partly drawn) [Compound 362, 4-((endo)-9-((exo)-bicyclo[3.3.1]nonan-3-yl)-9-azabicyclo[3.3.1]nonan-3-yl)-3-oxo-3,4-dihydroquinoxaline-2-carboxylic acid], the “% reversal of mechanical hyperalgesia” value in data set [3] (1 hour after administration) is 60%; in data set [3] (3 hours after administration), 60%; in data set [3] (5 hours after administration), 50%; in data set [3] (7 hours after administration), 40%. Also, the “% reversal of thermal hyperalgesia” value was 86% in data set [1] (3 mg/kg dose, 1 hour after administration); 51% in data set [1] (3 mg/kg dose, 3 hours after administration); 27% in data set [1] (3 mg/kg dose, 5 hours after administration). Besides, the “ED50 for reversal of thermal hyperalgesia” value in data set [1] (1 hour after administration) came out at 0.8 mg/kg; in data set [1] (3 hours after administration), 1.5 mg/kg; in data set [1] (5 hours after administration), 3.0 mg/kg. Also, the “abnormal behavioral side effects, such as sedation, hyperactivity and/or hypoactivity” value in data set [2] was “reduced abnormal behavioral side effects”. For the same molecule, the cardiovascular side effects entry in data set [4] is “reduced cardiovascular side effects”.
Turning to `C[C@@H]1C[C@@H]2C[C@H](C1)C[C@@H](N1[C@@H]3CCC[C@H]1C[C@@H](n1c(=O)c(C(=O)O)nc4ccccc41)C3)C2` [Compound 405, (exo, endo, endo)-4-(9-(7-methylbicyclo[3.3.1]nonan-3-yl)-9-azabicyclo[3.3.1]nonan-3-yl)-3-oxo-3,4-dihydroquinoxaline-2-carboxylic acid potassium salt], the “% reversal of mechanical hyperalgesia” value in data set [3] (1 hour after administration), in data set [3] (3 hours after administration) and in data set [3] (5 hours after administration) was 70% each time.
